Columns and labels:
Format in all cases: in vivo
[1] = test system: blackgrass (Alopecurus myosuroides); assay: Test C preemergence, blackgrass; details: 0 is no effect, 100 is complete control
Source text: Seeds of plant species selected from blackgrass (Alopecurus myosuroides), corn (Zea mays), foxtail, giant (giant foxtail, Setaria faberi), goosegrass (Eleusine indica), kochia (Bassia scoparia), oat, wild (wild oat, Avena fatua), pigweed, palmer (palmer amaranth, Amaranthus palmeri), ragweed (common ragweed, Ambrosia artemisiifolia), ryegrass, Italian (Italian ryegrass, Lolium multiflorum), soybean (Glycine max) and wheat (Triticum aestivum) were planted into a blend of loam soil and sand and treated preemergence with a directed soil spray using test chemicals formulated in a non-phytotoxic solvent mixture which included a surfactant.
At the same time, plants selected from these crop and weed species and also galium (catchweed bedstraw, Galium aparine) and horseweed (Erigeron canadensis) were planted in pots containing the same blend of loam soil and sand and treated with postemergence applications of test chemicals formulated in the same manner. Plants ranged in height from 2 to 10 cm and were in the one- to two-leaf stage for the postemergence treatment. Treated plants and untreated controls were maintained in a greenhouse for 10 or 12 days, after which time all treated plants were compared to untreated controls and visually evaluated for injury. Plant response ratings, summarized in Table A, are based on a 0 to 100 scale where 0 is no effect and 100 is complete control. A dash (-) response means no test result.

corn (Zea mays) [2] = assay: Test C preemergence, corn; details: 0 is no effect, 100 is complete control
In short: (§1)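 Injury is given as a visual 0–100 rating, where 100 is complete control, made against untreated plants after 10 or 12 greenhouse days. Galium received a postemergence spray at the one- to two-leaf stage (2–10 cm tall). Corn, ragweed and goosegrass seeds in loam-sand blend received a directed preemergence soil spray; test chemicals were formulated in a surfactant-containing non-phytotoxic solvent.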

[3] = test system: foxtail, giant (giant foxtail, Setaria faberi); assay: Test C preemergence, giant foxtail; details: 0 is no effect, 100 is complete control
In short: (§2)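 Ratings run from 0, meaning no effect, up to 100, meaning complete control, judged by eye against untreated plants. Treatment was a directed soil spray before emergence or a postemergence spray on 2–10 cm seedlings, with evaluation 10 or 12 days later.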

[4] = test system: goosegrass (Eleusine indica); assay: Test C preemergence, goosegrass; details: 0 is no effect, 100 is complete control
In short: as §1

kochia (Bassia scoparia) [5] = assay: Test C preemergence, kochia; details: 0 is no effect, 100 is complete control
In short: as §2

[6] = test system: oat, wild (wild oat, Avena fatua); assay: Test C preemergence, wild oat; details: 0 is no effect, 100 is complete control
In short: as §2

[7] = test system: pigweed, palmer (palmer amaranth, Amaranthus palmeri); assay: Test C preemergence, palmer amaranth; details: 0 is no effect, 100 is complete control
In short: as §2

[8] = test system: ragweed (common ragweed, Ambrosia artemisiifolia); assay: Test C preemergence, ragweed; details: 0 is no effect, 100 is complete control
In short: as §1

[9] = test system: ryegrass, Italian (Italian ryegrass, Lolium multiflorum); assay: Test C preemergence, Italian ryegrass; details: 0 is no effect, 100 is complete control
In short: as §2

soybean (Glycine max) [10] = assay: Test C preemergence, soybean; details: 0 is no effect, 100 is complete control
In short: as §2

[11] = test system: wheat (Triticum aestivum); assay: Test C preemergence, wheat; details: 0 is no effect, 100 is complete control
[12] = test system: blackgrass (Alopecurus myosuroides); assay: Test C postemergence, blackgrass; details: 31 g ai/ha Postemergence; visual injury, 0 to 100 scale (0 no effect, 100 complete control)
In short: as §2

corn (Zea mays) [13] = assay: Test C postemergence, corn
[14] = test system: foxtail, giant (giant foxtail, Setaria faberi); assay: Test C postemergence, giant foxtail
[15] = test system: goosegrass (Eleusine indica); assay: Test C postemergence, goosegrass
In short: as §2

kochia (Bassia scoparia) [16] = assay: Test C postemergence, kochia
In short: as §2

[17] = test system: oat, wild (wild oat, Avena fatua); assay: Test C postemergence, wild oat
[18] = test system: pigweed, palmer (palmer amaranth, Amaranthus palmeri); assay: Test C postemergence, palmer amaranth
In short: as §2

[19] = test system: ragweed (common ragweed, Ambrosia artemisiifolia); assay: Test C postemergence, ragweed
In short: as §2

[20] = test system: ryegrass, Italian (Italian ryegrass, Lolium multiflorum); assay: Test C postemergence, Italian ryegrass
In short: as §2

soybean (Glycine max) [21] = assay: Test C postemergence, soybean
[22] = test system: wheat (Triticum aestivum); assay: Test C postemergence, wheat
In short: as §2

[23] = test system: galium (catchweed bedstraw, Galium aparine); assay: Test C postemergence, galium
[24] = test system: horseweed (Erigeron canadensis); assay: Test C postemergence, horseweed
In short: as §2

[25] = test system: barnyardgrass (Echinochloa crusgalli); assay: Test D flooded paddy test, barnyardgrass; parameters: key: 0 = no effect, 100 = complete control; details: 250 g ai/ha, Flood; applied to paddy water at 2-leaf stage; visual rating after 13 days; scale 0 (no effect) to 100 (complete control)
In short: (§3)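 Visual response scores run 0 (no effect) to 100 (complete control), judged against controls 13 days after treatment. Compounds were added to paddy water 3 cm deep over soil, around plants at the 2-leaf stage kept in a greenhouse.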

[26] = test system: ducksalad (Heteranthera limosa); assay: Test D flooded paddy test, ducksalad; parameters: key: 0 = no effect, 100 = complete control; details: 250 g ai/ha, Flood; applied to paddy water at 2-leaf stage; visual rating after 13 days; scale 0 (no effect) to 100 (complete control)
In short: as §3

rice (Oryza sativa) = assay: Test D flooded paddy test, rice; parameters: key: 0 = no effect, 100 = complete control; details: 250 g ai/ha, Flood; applied to paddy water at 2-leaf stage; visual rating after 13 days; scale 0 (no effect) to 100 (complete control)
In short: as §3

[27] = test system: sedge, umbrella (small-flower umbrella sedge, Cyperus difformis); assay: Test D flooded paddy test, umbrella sedge; parameters: key: 0 = no effect, 100 = complete control; details: 250 g ai/ha, Flood; applied to paddy water at 2-leaf stage; visual rating after 13 days; scale 0 (no effect) to 100 (complete control)
In short: as §3

[28] = test system: blackgrass (Alopecurus myosuroides); assay: Test C postemergence, blackgrass; details: 125 g ai/ha Postemergence; 0 is no effect, 100 is complete control
[29] = 31 g ai/ha Postemergence, visual injury, 0 to 100 scale (0 no effect, 100 complete control)
[30] = 125 g ai/ha Postemergence, 0 is no effect, 100 is complete control

## Cc1cc(C)c(N(C(=O)OC(C)C)S(=O)(=O)C(F)(F)F)cc1N1CCC(OC2CC2)C1=O (stereo not shown) [Compound 18]
[1]; 31 g ai/ha Preemergence
  Plant response rating (0 to 100 scale), Blackgrass: 0
[1]; 125 g ai/ha Preemergence
  Plant response rating (0 to 100 scale), Blackgrass: 0
Corn (Zea mays) [2]; 31 g ai/ha Preemergence
  Plant response rating (0 to 100 scale), Corn: 0
Corn (Zea mays) [2]; 125 g ai/ha Preemergence
  Plant response rating (0 to 100 scale), Corn: 0
[3]; 31 g ai/ha Preemergence
  Plant response rating (0 to 100 scale), Foxtail, Giant: 0
[3]; 125 g ai/ha Preemergence
  Plant response rating (0 to 100 scale), Foxtail, Giant: 0
[4]; 31 g ai/ha Preemergence
  Plant response rating (0 to 100 scale), Goosegrass: 0
[4]; 125 g ai/ha Preemergence
  Plant response rating (0 to 100 scale), Goosegrass: 0
Kochia (Bassia scoparia) [5]; 31 g ai/ha Preemergence
  Plant response rating (0 to 100 scale), Kochia: 0
Kochia (Bassia scoparia) [5]; 125 g ai/ha Preemergence
  Plant response rating (0 to 100 scale), Kochia: 60
[6]; 31 g ai/ha Preemergence
  Plant response rating (0 to 100 scale), Oat, Wild: 0
[6]; 125 g ai/ha Preemergence
  Plant response rating (0 to 100 scale), Oat, Wild: 0
[7]; 31 g ai/ha Preemergence
  Plant response rating (0 to 100 scale), Pigweed, Palmer: 0
[7]; 125 g ai/ha Preemergence
  Plant response rating (0 to 100 scale), Pigweed, Palmer: 20
[8]; 31 g ai/ha Preemergence
  Plant response rating (0 to 100 scale), Ragweed: 0
[8]; 125 g ai/ha Preemergence
  Plant response rating (0 to 100 scale), Ragweed: 0
[9]; 31 g ai/ha Preemergence
  Plant response rating (0 to 100 scale), Ryegrass, Italian: 0
[9]; 125 g ai/ha Preemergence
  Plant response rating (0 to 100 scale), Ryegrass, Italian: 0
Soybean (Glycine max) [10]; 31 g ai/ha Preemergence
  Plant response rating (0 to 100 scale), Soybean: 0
Soybean (Glycine max) [10]; 125 g ai/ha Preemergence
  Plant response rating (0 to 100 scale), Soybean: 30
[11]; 31 g ai/ha Preemergence
  Plant response rating (0 to 100 scale), Wheat: 0
[11]; 125 g ai/ha Preemergence
  Plant response rating (0 to 100 scale), Wheat: 0
[12]
  Blackgrass plant response rating: 0
Corn (Zea mays) [13]; [29]
  Corn plant response rating: 0
Corn (Zea mays) [13]; [30]
  Plant response rating (0 to 100 scale), Corn: 0
[14]; [29]
  Foxtail, Giant plant response rating: 0
[14]; [30]
  Plant response rating (0 to 100 scale), Foxtail, Giant: 0
[15]; [29]
  Goosegrass plant response rating: 0
[15]; [30]
  Plant response rating (0 to 100 scale), Goosegrass: 0
Kochia (Bassia scoparia) [16]; [29]
  Kochia plant response rating: 20
Kochia (Bassia scoparia) [16]; [30]
  Plant response rating (0 to 100 scale), Kochia: 70
[17]; [29]
  Oat, Wild plant response rating: 0
[17]; [30]
  Plant response rating (0 to 100 scale), Oat, Wild: 0
[18]; [29]
  Pigweed, Palmer plant response rating: 0
[18]; [30]
  Plant response rating (0 to 100 scale), Pigweed, Palmer: 20
[19]; [29]
  Ragweed plant response rating: 0
[19]; [30]
  Plant response rating (0 to 100 scale), Ragweed: 50
[20]; [29]
  Ryegrass, Italian plant response rating: 0
[20]; [30]
  Plant response rating (0 to 100 scale), Ryegrass, Italian: 0
Soybean (Glycine max) [21]; [29]
  Soybean plant response rating: 50
Soybean (Glycine max) [21]; [30]
  Plant response rating (0 to 100 scale), Soybean: 80
[22]; [29]
  Wheat plant response rating: 0
[22]; [30]
  Plant response rating (0 to 100 scale), Wheat: 0
[23]; [29]
  Galium plant response rating: 10
[23]; [30]
  Plant response rating (0 to 100 scale), Galium: 70
[24]; [29]
  Horseweed plant response rating: 0
[24]; [30]
  Plant response rating (0 to 100 scale), Horseweed: 0
[25]
  Plant response rating, Barnyardgrass: 0
[26]
  Plant response rating, Ducksalad: 0
Rice (Oryza sativa)
  Plant response rating, Rice: 0
[27]
  Plant response rating, Sedge, Umbrella: 0
[28]
  Plant response rating (0 to 100 scale), Blackgrass: 0
